The text below walks through data of PMC4865845, “A human genome-wide loss-of-function screen identifies effective chikungunya antiviral drugs” (Nature Communications, 2016).

In the data set the test system is CHIKV. It counts as cell-based, chikungunya virus.

“s6671 (sense CAACGAAAATCTAAATGCA; chemistry not given here)” registered a Score_si2 of 0.2.

Turning to “Hs_SAFB_3 (sense CTGCCATATTGTAGCTCAATA; chemistry not given here)”, the Score_si1 is 1.4.

“Hs_KIAA0674_1 (sense CCGGAAACAACTGGAACTCAA; chemistry not given here)” had a Score_si1 of 1.96.

For the substance “Hs_DOK6_1 (TACGCCAAACCTGGATATTTA; chemistry not given here) [reference compound]”, the Score_si3 is listed as -0.32.

“s13805 (sense TCACTGTGCTGATCGGGAA; chemistry not given here)” displayed a Score_si3 of 0.78.

The substance “Hs_SCLY_1 (sense CTGACTCAGCTTATACCTTAA; chemistry not given here)” showed a Score_si3 of 1.21.

Substance “s195642 (sense GGTGAGGACAAGTTCCAGT; chemistry not given here)” yielded a Score_si3 of 0.49.

“Hs_HMGA1L4_1 (sense AAGCCTCAGCTCAAACTCAAA; chemistry not given here)” yielded a Score_si1 of 2.38.

On to “s30606 (CAGTGATGGTGATTCAGAT; chemistry not given here)”, for which the Score_si4 came to 0.49.

Substance “Hs_MAP2K2_9 (TTCCAGGAGTTTGTCAATAAA; chemistry not given here)” came in with a Score_si4 of 0.51.

For the substance “s38778 (CCCTTCCTCTATTCGAACA; chemistry not given here)”, the Score_si4 was -0.27.

In turn, “Hs_SREBF2_3 (sense CTGCAATTTGTCAGTAATCAA; chemistry not given here)” displayed a Score_si1 of 2.21.

With “Hs_DKFZP434B168_1 (CTGAAATTACTTGCTAATAAA; chemistry not given here)”, the Score_si3 was 1.61.

With “Hs_COPS2_3 (sense ATGAATAGATATAAGCAGCTA; chemistry not given here)”, the Score_si1 is reported as 2.07.

Regarding “s9338 (ACAAGCTCTCCAACAATTA; chemistry not given here) [reference compound]”, the Score_si2 was -0.79.

For “s28991 (GAAGAGGTTTTGGAGTATA; chemistry not given here)”, the Score_si4 came out at 0.22.

The substance “Hs_EZH2_7 (AACCATGTTTACAACTATCAA; chemistry not given here)” gave a Score_si4 of 0.98.

“s32096 (GTTCCAGTATGGGAATTAT; chemistry not given here)”: the Score_si3 was 1.63.

In turn, “Hs_AP2M1_3 (ACGTGTGACTTCGTCCAGTTA; chemistry not given here)” yielded a Score_si1 of 2.57.

Turning to “Hs_RAD51L3_4 (sense CCCAGTAACGCCTGCTGTTTA; chemistry not given here)”, the Score_si4 is listed as 0.33.

Consider “Hs_DHX38_1 (CAGGATTTGGAAATAAATTTA; chemistry not given here)”, for which the Score_si1 turned out to be 2.48.

In the case of “s50641 (sense ACAACTCTGTGCACAACAA; chemistry not given here)”, the Score_si4 came out at 0.17.

“Hs_YEATS4_2 (TTGGTAGTAAGCTAAACTGAA; chemistry not given here)” came in with a Score_si2 of 1.07.

For “Hs_RASL11B_2 (sense ATGCTTTGGCTTAAACTGTAA; chemistry not given here)”, the Score_si1 is recorded as 2.53.

In turn, “Hs_CLPP_3 (sense GCCCATCCACATGTACATCAA; chemistry not given here)” registered a Score_si3 of 1.41.

Substance “s21425 (sense GCCTGTTACAGATGACATA; chemistry not given here)” gave a Score_si3 of 0.63.

“Hs_FLJ10134_1 (CTGATGTTATATGACTATAAA; chemistry not given here)” yielded a Score_si1 of 1.71.

With “Hs_ULK2_6 (CAGCCTGAGATACGTGCCTTA; chemistry not given here) [reference compound]”, the Score_si1 is -2.62.

Turning to “s7007 (sense GGATCGGGTTCTAAAGGAA; chemistry not given here)”, the Score_si2 was determined as 1.87.

Take “Hs_ATP6AP2_3 (AAGGACTATCCTTGAGGCAAA; chemistry not given here)”: the Score_si1 was found to be 1.26.

With “s27640 (sense TGAAAAACGTAGAAATGAA; chemistry not given here)”, the Score_si2 was 1.74.

For “Hs_PEX19_1 (ATGGGTGGCTTCATGAATTAA; chemistry not given here)”, the Score_si1 came to 1.26.

On to “Hs_PTX3_3 (sense AAAGGGATTTGTATTAATTTA; chemistry not given here)”, for which the Score_si3 came out at 1.09.

In turn, “Hs_LBX1_1 (sense CACCAGATCTATGAATTGGAA; chemistry not given here)” returned a Score_si3 of 1.41.

The substance “Hs_DMAP1_1 (GCGGATGTACGGGACATTCTA; chemistry not given here)” showed a Score_si1 of 2.23.

Turning to “Hs_MGC21830_2 (CAGCTGGGCGGTGCTGTTCGA; chemistry not given here) [reference compound]”, the Score_si2 is -1.02.

Substance “Hs_RARSL_4 (sense CCAGCTTTCCAGAGTGTTGAA; chemistry not given here) [reference compound]” displayed a Score_si3 of -1.26.

The substance “Hs_PCQAP_1 (CCGCATGATCAACAAGATCGA; chemistry not given here) [reference compound]” showed a Score_si1 of -1.12.

“s28365 (sense AGATCGACAAGAACGAAGA; chemistry not given here) [reference compound]”: the Score_si4 was -0.72.

Take “s17301 (GCCTGGTATTTTGAAATCA; chemistry not given here)”: the Score_si3 amounted to 0.7.

Regarding “s3146 (GACCATGGATAATAAGAAA; chemistry not given here)”, the Score_si4 is reported as -0.15.

In turn, “s27235 (sense AGACCCACACTAAAGAATT; chemistry not given here) [reference compound]” registered a Score_si2 of -0.6.

The substance “Hs_SHC2_10 (sense GCGGTTTGTCCTACAAGTTTA; chemistry not given here)” showed a Score_si4 of 0.47.

In the case of “Hs_FLJ10134_2 (CTCCTTGACCATGGAATTATA; chemistry not given here)”, the Score_si2 is given as 1.53.

For the substance “s195100 (sense GGGTGAATGTAGACCCTGA; chemistry not given here)”, the Score_si3 came out at 1.95.

As to “Hs_GRB10_6 (sense CTAGATGACGGGAACACCAAA; chemistry not given here)”, the Score_si4 is on record as 0.5.

“Hs_DHX38_2 (CAGCAGTGAATTTGCAAAGAA; chemistry not given here)” came in with a Score_si4 of 1.02.

Substance “s3145 (GACCCTTACCTGGAAGTTT; chemistry not given here)” showed a Score_si2 of 0.19.

As to “Hs_HMGA1L4_2 (sense CTGGCTGGATGAAGACAGTAA; chemistry not given here)”, the Score_si4 came to 0.45.

Consider “Hs_BCHE_2 (CGGGTTGAAAGAGTTATTGTA; chemistry not given here)”, for which the Score_si2 turned out to be 0.74.

Regarding “s29269 (CAGTTTACCGAGGAAGAAA; chemistry not given here)”, the Score_si3 was found to be 1.26.

Substance “s5295 (sense CGAGGTCATTGTGCATGAA; chemistry not given here)” displayed a Score_si4 of 0.77.

“s35016 (CCTGATCCACGAGAAGTCA; chemistry not given here)” yielded a Score_si2 of 1.63.

“s30117 (GGTCTTTGGTGGTGTACAA; chemistry not given here)” gave a Score_si3 of 0.96.

For “Hs_CAMKK2_3 (TAGCAGCATGTCCTACGGAAA; chemistry not given here)”, the Score_si4 is recorded as 1.01.

In turn, “s32095 (CAGAAACGATCTACAAGAA; chemistry not given here)” yielded a Score_si4 of 1.53.

The substance “Hs_LOC283377_7 (sense AAAGCTAGGCATACAGCCAAA; chemistry not given here)” came in with a Score_si3 of 0.76.

“Hs_LRIG2_1 (AGGGATGTCATTGTAAATATA; chemistry not given here) [reference compound]” came in with a Score_si1 of -2.53.

Consider “Hs_NCOA1_1 (CAGCGGGAACTGTACAGTCAA; chemistry not given here)”, for which the Score_si2 amounted to 1.96.

“s14706 (sense GCATGATCTAGATCGAGTA; chemistry not given here)” showed a Score_si3 of 1.88.

For the substance “s5032 (sense GGAGCGTATCTGTGAGAAA; chemistry not given here)”, the Score_si4 turned out to be 1.56.

As to “s18241 (GCTTGATGGTTCAACTCCA; chemistry not given here)”, the Score_si1 amounted to 2.01.

On to “s29 (CCCATAATATCATTGAGAA; chemistry not given here)”, for which the Score_si2 is 1.87.

“Hs_PPP1R15A_3 (CAGGATCAGCCGAGGATGAAA; chemistry not given here)”: the Score_si3 was 1.25.

On to “Hs_DC-UbP_5 (AGGCAGTTAAGAAATAGATAA; chemistry not given here)”, for which the Score_si3 stood at 0.86.

Consider “s27642 (sense GCATGATGTTCGTCCGCAA; chemistry not given here)”, for which the Score_si4 was determined as 1.26.

Take “Hs_CRSP8_2 (sense TCGAACAATAGTAAAGGGATA; chemistry not given here) [reference compound]”: the Score_si2 is -1.08.

As to “Hs_RRBP1_1 (sense CACGTAGAGGATGGTGACATA; chemistry not given here)”, the Score_si2 is reported as 1.82.

Regarding “s5571 (sense GCAGGACGAGGGTAAAGAA; chemistry not given here)”, the Score_si2 was found to be 0.56.

“s38295 (GCAATTCTGACGACAATAT; chemistry not given here)”: the Score_si3 was 1.57.

“Hs_ATF1_6 (AACCTAGTACATTACTAAATA; chemistry not given here) [reference compound]”: the Score_si4 was -0.75.

Turning to “Hs_GRB10_2 (sense CTACCGTATAGTAACACTGTA; chemistry not given here)”, the Score_si1 is recorded as 0.95.

The substance “Hs_TRAF2_4 (CTGGACCAAGACAAGATTGAA; chemistry not given here) [reference compound]” yielded a Score_si1 of -1.15.

For the substance “s16635 (GAGCACTACTTGTACATGA; chemistry not given here)”, the Score_si2 is recorded as 2.02.
